Source: patent US8071612B2, “6-alkenyl and 6-phenylalkyl substituted 2-quinolinones and 2-quinoxalinones as poly(ADP-ribose) polymerase inhibitors” (Janssen Pharmaceutica, NV, priority 2004, dated 2011)

Target: T1, PARP-1 enzyme (Homo sapiens, UniProt P09874)
T1 construct: made in house
Experiment: In vitro Scintillation Proximity Assay (SPA) for PARP-1 inhibitory activity
Format: biochemical
Conditions: nicked DNA activated PARP-1, [3H]-NAD+, biotinylated histones; read-out: In vitro SPA pIC50 (converted)
Description: Compounds of the present invention were tested in an in vitro assay based on SPA technology (proprietary to Amersham Pharmacia Biotech).
In principle, the assay relies upon the well established SPA technology for the detection of poly(ADP-ribosyl)ation of biotinylated target proteins, i.e histones. This ribosylation is induced using nicked DNA activated PARP-1 enzyme and [^3H]-nicotinamide adenine dinucleotide ([^3H]-NAD^+) as ADP-ribosyl donor.
As inducer of PARP-1 enzyme activity, nicked DNA was prepared. For this, 25 mg of DNA (supplier: Sigma) was dissolved in 25 ml DNAse buffer (10 mM Tris-HCl, pH 7.4; 0.5 mg/ml Bovine Serum Albumine (BSA); 5 mM MgCl2.6H2O and 1 mM KCl) to which 50 μl DNAse solution (1 mg/ml in 0.15 M NaCl) was added. After an incubation of 90 min. at 37° C., the reaction was terminated by adding 1.45 g NaCl, followed by a further incubation at 58° C. for 15 min. The reaction mixture was cooled on ice and dialysed at 4° C. for respectively 1.5 and 2 hours against 1.5 l of 0.2 M KCl, and twice against 1.5 l of 0.01 M KCl for 1.5 and 2 h respectively. The mixture was aliquoted and stored at −20° C. Histones (1 mg/ml, type II-A, supplier: Sigma) were biotinylated using the biotinylation kit of Amersham and stored aliquoted at −20° C. A stock solution of 100 mg/ml SPA poly(vinyl toluene) (PVT) beads (supplier: Amersham) was made in PBS. A stock solution of [^3]H-NAD^+ was made by adding 120 μl of [^3H]-NAD^+ (0.1 mCi/ml, supplier: NEN) to 6 ml incubation buffer (50 mM Tris/HCl, pH 8; 0.2 mM DTT; 4 mM MgCl2). A solution of 4 mM NAD^+ (supplier: Roche) was made in incubation buffer (from a 100 mM stock solution in water stored at −20° C.). The PARP-1 enzyme was produced using art known techniques, i.e. cloning and expression of the protein starting from human liver cDNA. Information concerning the used protein sequence of the PARP-1 enzyme including literature references can be found in the Swiss-Prot database under primary accession number P09874. Biotinylated histones and PVT-SPA beads were mixed and pre-incubated for 30 min. at room temperature. PARP-1 enzyme (concentration was lot dependent) was mixed with the nicked DNA and the mixture was pre-incubated for 30 min. at 4° C. Equal parts of this histones/PVT-SPA beads solution and PARP-1 enzyme/DNA solution were mixed and 75 μl of this mixture together with 1 μl of compound in DMSO and 25 μl of [^3H]-NAD^+ was added per well into a 96-well microtiterplate. The final concentrations in the incubation mixture were 2 μg/ml for the biotinylated histones, 2 mg/ml for the PVT-SPA beads, 2 μg/ml for the nicked DNA and between 5-10 μg/ml for the PARP-1 enzyme. After incubation of the mixture for 15 min. at room temperature, the reaction was terminated by adding 100 μl of 4 mM NAD^+ in incubation buffer (final concentration 2 mM) and plates were mixed.
The beads were allowed to sediment for at least 15 min. and plates transferred to a TopCountNXT™ (Packard) for scintillation counting, values were expressed as counts per minute (cpm). For each experiment, controls (containing PARP-1 enzyme and DMSO without compound), a blank incubation (containing DMSO but no PARP-1 enzyme or compound) and samples (containing PARP-1 enzyme and compound dissolved in DMSO) were run in parallel. All compounds tested were dissolved and eventually further diluted in DMSO. In first instance, compounds were tested at a concentration of 10^−5 M or 10^−6M. […] In each test, the blank value was subtracted from both the control and the sample values. The control sample represented maximal PARP-1 enzyme activity. For each sample, the amount of cpm was expressed as a percentage of the mean cpm value of the controls. When appropriate, IC50-values (concentration of the drug, needed to reduce the PARP-1 enzyme activity to 50% of the control) were computed using linear interpolation between the experimental points just above and below the 50% level. […]

T1 sequence (P09874 whole entry): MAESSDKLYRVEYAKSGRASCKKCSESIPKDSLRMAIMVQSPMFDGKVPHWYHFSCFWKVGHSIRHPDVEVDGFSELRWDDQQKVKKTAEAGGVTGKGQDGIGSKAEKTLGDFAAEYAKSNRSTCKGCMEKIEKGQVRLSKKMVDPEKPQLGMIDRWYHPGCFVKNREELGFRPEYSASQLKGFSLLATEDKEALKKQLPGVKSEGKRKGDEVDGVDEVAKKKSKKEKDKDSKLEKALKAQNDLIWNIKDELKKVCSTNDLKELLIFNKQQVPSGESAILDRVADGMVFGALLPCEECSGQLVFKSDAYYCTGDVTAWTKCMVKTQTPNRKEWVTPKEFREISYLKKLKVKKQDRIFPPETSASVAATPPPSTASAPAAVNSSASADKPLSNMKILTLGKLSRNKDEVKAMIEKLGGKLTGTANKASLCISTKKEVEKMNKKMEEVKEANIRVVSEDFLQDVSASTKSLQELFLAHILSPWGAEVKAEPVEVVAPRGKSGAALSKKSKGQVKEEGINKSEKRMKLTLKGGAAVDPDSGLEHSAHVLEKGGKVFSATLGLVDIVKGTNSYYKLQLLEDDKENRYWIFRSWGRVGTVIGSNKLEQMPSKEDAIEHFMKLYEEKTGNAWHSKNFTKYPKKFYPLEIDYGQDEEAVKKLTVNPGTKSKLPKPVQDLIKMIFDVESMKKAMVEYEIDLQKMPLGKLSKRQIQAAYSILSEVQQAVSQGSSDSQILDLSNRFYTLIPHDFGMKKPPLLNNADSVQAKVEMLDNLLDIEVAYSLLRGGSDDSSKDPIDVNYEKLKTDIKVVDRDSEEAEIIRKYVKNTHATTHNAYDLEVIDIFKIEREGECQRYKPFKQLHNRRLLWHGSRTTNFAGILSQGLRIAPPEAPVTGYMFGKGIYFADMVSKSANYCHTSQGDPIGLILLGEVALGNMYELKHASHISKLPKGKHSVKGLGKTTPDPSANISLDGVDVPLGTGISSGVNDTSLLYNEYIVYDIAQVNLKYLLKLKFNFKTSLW

| Structure (SMILES) | IC50 [nM] |
| --- | --- |
| CCc1cc2cc(C(c3ccc4c(c3)OCCO4)C3CC[N+](C/C=C/c4ccccc4)(C/C=C/c4ccccc4)CC3)ccc2[nH]c1=O (centres unmarked) [Compound 15] | 119 |
| CCc1cc2cc(C(c3ccc4c(c3)OCCO4)N3CCC(CCN4CCCCC4)CC3)ccc2[nH]c1=O (centres unmarked) [Compound 31] | 21.3 |
| O=c1[nH]c2ccc(C(NCCCN3CCCCC3)c3cccc(C(F)(F)F)c3)cc2c2ccccc12 (centres unmarked) [Compound 32] | 74.6 |
| CCc1cc2cc(C(c3ccc4c(c3)OCCO4)N3CCC(NCCOC)CC3)ccc2[nH]c1=O (centres unmarked) [Compound 33] | 25.7 |
| CCc1cc2cc(C(c3cccc(OC(F)(F)F)c3)N3CCC(NCCOC)CC3)ccc2[nH]c1=O (centres unmarked) [Compound 34] | 525 |
| CCc1cc2cc(C(c3ccc(C(F)(F)F)cc3F)N3CCC(NCCOC)CC3)ccc2[nH]c1=O (centres unmarked) [Compound 35] | 802 |
| CCc1cc2cc(C(c3ccc(OCCCN(C)C)cc3)N3CCC(NCCOC)CC3)ccc2[nH]c1=O (centres unmarked) [Compound 36] | 299 |
| CCc1cc2cc(C(c3ccc4c(c3)OCCO4)N3CCN(CCN4CCCCC4)CC3)ccc2[nH]c1=O (centres unmarked) [Compound 40] | 23.7 |
| CCc1cc2cc(C(c3ccc4c(c3)OCCO4)N3CCN(CC4CCCCC4)CC3)ccc2[nH]c1=O (centres unmarked) [Compound 41] | 122 |
| CCc1cc2cc(C(c3ccc4c(c3)OCO4)n3nc(C4CCNCC4)c4ccc(F)cc43)ccc2[nH]c1=O (centres unmarked) [Compound 42] | 948 |
| CCc1cc2cc(C(c3ccc4c(c3)OCCO4)N3CCN(CCN4CCCCCC4)CC3)ccc2[nH]c1=O (centres unmarked) [Compound 43] | 21.2 |
| CCc1cc2cc(C(NCCN3CCC(C(=O)c4ccc(F)cc4)CC3)c3ccc4c(c3)OCCO4)ccc2[nH]c1=O (centres unmarked) [Compound 44] | 92.3 |
| O=c1[nH]c2ccc(C(NCCN3CCC(c4n[nH]c5cc(F)ccc45)CC3)c3ccc4c(c3)OCCO4)cc2c2ccccc12 (centres unmarked) [Compound 45] | 45.6 |
| CCc1cc2cc(C(c3ccc4c(c3)OCCO4)N3CCC(c4n[nH]c5cc(F)ccc45)CC3)ccc2[nH]c1=O (centres unmarked) [Compound 46] | 405 |
| O=c1[nH]c2ccc(C(NCCN3CCC(c4n[nH]c5cc(F)ccc45)CC3)c3cccc(C(F)(F)F)c3)cc2c2ccccc12 (centres unmarked) [Compound 47] | 516 |
| COCCNC1CCN(C(c2cccc(C(F)(F)F)c2)c2ccc3[nH]c(=O)c4ccccc4c3c2)CC1 (centres unmarked) [Compound 48] | 190 |
| CN(CCCNC(c1cccc(C(F)(F)F)c1)c1ccc2[nH]c(=O)c3ccccc3c2c1)Cc1ccccc1 (centres unmarked) [Compound 49] | 406 |
| CCc1nc2cc(C(NCCN3CCC(C(=O)c4ccc(F)cc4)CC3)c3ccccc3)ccc2[nH]c1=O (centres unmarked) [Compound 50] | 678 |
| CCc1nc2cc(C(NCCCN3CCCCC3)c3ccccc3)ccc2[nH]c1=O (centres unmarked) [Compound 51] | 459 |

| Structure (SMILES) | IC50 [nM] |
| --- | --- |
| CCc1cc2cc(C(NCCCN3CCCCC3)c3ccc4c(c3)OCCO4)ccc2[nH]c1=O (centres unmarked) [Compound 52] | 54.6 |
| CCc1cc2cc(C(NC3CCCN(Cc4ccccc4)C3)c3ccc4c(c3)OCCO4)ccc2[nH]c1=O (centres unmarked) [Compound 53] | 152 |
| CCc1cc2cc(C(c3ccc4c(c3)OCO4)N3CCC(NCCOC)CC3)ccc2[nH]c1=O (centres unmarked) [Compound 54] | 101 |
| CCc1cc2cc(C(OCCN(C)C)c3ccc4c(c3)OCCO4)ccc2[nH]c1=O (centres unmarked) [Compound 55] | 18.4 |
| CCc1nc2cc(C(NCCCN(C)Cc3ccccc3)c3ccccc3)ccc2[nH]c1=O (centres unmarked) [Compound 56] | 511 |
| CCc1cc2cc(C(NCCCN(C)Cc3ccccc3)c3ccc4c(c3)OCCO4)ccc2[nH]c1=O (centres unmarked) [Compound 57] | 33.6 |
| CCc1nc2cc(C(c3ccccc3)N3CCC(NCCOC)CC3)ccc2[nH]c1=O (centres unmarked) [Compound 58] | 582 |
| CCc1cc2cc(C(c3cccc(F)c3)N3CCC(NCCOC)CC3)ccc2[nH]c1=O (centres unmarked) [Compound 59] | 217 |
| CCc1cc2cc(C(c3ccc(Cl)cc3)N3CCN(C)CC3)ccc2[nH]c1=O (centres unmarked) [Compound 60] | 296 |
| CCc1cc2cc(C(c3ccc4ccccc4c3)N3CCC(NCCOC)CC3)ccc2[nH]c1=O (centres unmarked) [Compound 61] | 276 |
| CCc1cc2cc(C(c3ccccc3F)N3CCC(NCCOC)CC3)ccc2[nH]c1=O (centres unmarked) [Compound 62] | 312 |
| CCc1cc2cc(C(c3ccc(Cl)c(F)c3)N3CCC(NCCOC)CC3)ccc2[nH]c1=O (centres unmarked) [Compound 63] | 361 |
| CCc1cc2cc(C(c3ccc(C)cc3C)N3CCC(NCCOC)CC3)ccc2[nH]c1=O (centres unmarked) [Compound 64] | 532 |
| CCc1cc2cc(C(c3ccc(N(C)C)cc3)N3CCC(NCCOC)CC3)ccc2[nH]c1=O (centres unmarked) [Compound 65] | 292 |
| CCc1cc2cc(C(c3ccc(Cl)cc3Cl)N3CCC(NCCOC)CC3)ccc2[nH]c1=O (centres unmarked) [Compound 66] | 417 |
| CCc1cc2cc(C(c3ccc(F)cc3)N3CCC(NCCOC)CC3)ccc2[nH]c1=O (centres unmarked) [Compound 67] | 208 |
| CCc1cc2cc(C(c3ccc(F)cc3F)N3CCC(NCCOC)CC3)ccc2[nH]c1=O (centres unmarked) [Compound 68] | 373 |
| CCc1cc2cc(C(c3cc(C(F)(F)F)ccc3Cl)N3CCC(NCCOC)CC3)ccc2[nH]c1=O (centres unmarked) [Compound 69] | 456 |
| CCc1cc2cc(C(c3ccc(C(F)(F)F)cc3)N3CCC(NCCOC)CC3)ccc2[nH]c1=O (centres unmarked) [Compound 70] | 762 |

| Structure (SMILES) | IC50 [nM] |
| --- | --- |
| CCc1cc2cc(C(OCCN(C)C)c3cccc(Cl)c3)ccc2[nH]c1=O (centres unmarked) [Compound 71] | 177 |
| CCc1cc2cc(C(c3c(Cl)cccc3Cl)N3CCC(NCCOC)CC3)ccc2[nH]c1=O (centres unmarked) [Compound 73] | 124 |
| CCc1cc2cc(C(c3ccccc3Cl)N3CCC(NCCOC)CC3)ccc2[nH]c1=O (centres unmarked) [Compound 74] | 211 |
| CCc1cc2cc(C(c3cccc(Cl)c3)N3CCN(C)CC3)ccc2[nH]c1=O (centres unmarked) [Compound 75] | 339 |
| CCc1cc2cc(C(c3cccc4ccccc34)N3CCC(NCCOC)CC3)ccc2[nH]c1=O (centres unmarked) [Compound 76] | 411 |
| CCc1cc2cc(C(c3ccccc3C)N3CCC(NCCOC)CC3)ccc2[nH]c1=O (centres unmarked) [Compound 82] | 356 |
| CCc1cc2cc(C(c3ccc(Cl)c(Cl)c3)N3CCC(NCCOC)CC3)ccc2[nH]c1=O (centres unmarked) [Compound 83] | 498 |
| CCc1nc2cc(C(c3ccccc3)N3CCC(=O)CC3)ccc2[nH]c1=O (centres unmarked) [Compound 84] | 318 |
| CCc1cc2cc(C(CCN(C)C)c3ccc4c(c3)OCCO4)ccc2[nH]c1=O (centres unmarked) [Compound 90] | 8.43 |
| O=CNC(c1cccc(C(F)(F)F)c1)c1ccc2[nH]c(=O)c3ccccc3c2c1 (centres unmarked) [Compound 97] | 31 |
| CCc1nc2cc(CC(O)c3ccccc3)ccc2[nH]c1=O (centres unmarked) [Compound 108] | 406 |
| CCc1nc2cc(CC(=O)c3ccccc3)ccc2[nH]c1=O [Compound 116] | 564 |
| CCc1nc2cc(CC(c3ccc(Cl)cc3)N3CCN(C4CCCCC4)CC3)ccc2[nH]c1=O (centres unmarked) [Compound 117] | 710 |
| CCc1nc2cc(CCC(c3ccc(Cl)cc3)n3ccnc3)ccc2[nH]c1=O (centres unmarked) [Compound 118] | 869 |
| CCc1nc2cc(CC(c3ccccc3)n3ccnc3)ccc2[nH]c1=O (centres unmarked) [Compound 119] | 198 |
| CCc1nc2ccc(CC(c3ccc(Cl)cc3)N3CCC(C(N)=O)CC3)cc2[nH]c1=O (centres unmarked) [Compound 120] | 553 |
| CCc1nc2cc(CC(c3ccc(Cl)cc3)N3CCC(O)(c4ccccc4)CC3)ccc2[nH]c1=O (centres unmarked) [Compound 121] | 830 |
| CCc1cc2cc(/C(=C/CN3CCCCC3)c3ccc4c(c3)OCCO4)ccc2[nH]c1=O [Compound 129] | 57.1 |
